In patent publication US20240208909A1, “SUBSTITUTED QUINOLINE DERIVATIVES HAVING SOS1 INHIBITION ACTIVITIES AND USES THEREOF” (Accutar Biotechnology Inc., priority 2022, published 2024):

Experiments:
[1] = test system: K562 cells; experiment: Cell growth inhibition of K562 cells (CellTiter-Glo); type: cell-based; conditions: Homo sapiens, 120 h, 5 days
[2] = target: SOS1/KRAS-G12D (Homo sapiens (Human), UniProt Q07889); experiment: SOS1/KRAS-G12D binding inhibition assay (AlphaScreen); conditions: GST-SOS1 and 6*His KRAS-G12D, read-out: KrasG12D/SOS1 binding IC50
Method in brief: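 GST-SOS1 (5 nM) pre-incubated 30 min with His6-KRAS-G12D (50 nM) in HEPES pH 7.4, NaCl, DTT, MgCl2, Tween-20, BSA; compound in 2% DMSO then added for 30 min at 4° C. GSH donor and Ni-NTA acceptor AlphaScreen beads, 2 h at 4° C; background-corrected % inhibition versus DMSO, IC50 by variable-slope nonlinear regression.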

[3] = test system: Phospho-ERK1/2 in DLD1 cells; experiment: Phospho-ERK1/2 expression inhibition in DLD1 cells; type: cell-based; conditions: Homo sapiens, DLD-1, 4 hours, read-out: DLD1 pERK IC50
Method in brief: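 DLD1 cells (15,000/well) were plated overnight, then exposed to compounds for 4 h at 37 °C. Cells were formaldehyde-fixed and methanol-permeabilized. Phospho-ERK1/2 was detected in-cell with rabbit anti-phospho-ERK1/2 and an IRDye 800CW secondary antibody, imaged on a LI-COR Odyssey.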

Sequence of SOS1/KRAS-G12D (Q07889 564-1049 limits assumed): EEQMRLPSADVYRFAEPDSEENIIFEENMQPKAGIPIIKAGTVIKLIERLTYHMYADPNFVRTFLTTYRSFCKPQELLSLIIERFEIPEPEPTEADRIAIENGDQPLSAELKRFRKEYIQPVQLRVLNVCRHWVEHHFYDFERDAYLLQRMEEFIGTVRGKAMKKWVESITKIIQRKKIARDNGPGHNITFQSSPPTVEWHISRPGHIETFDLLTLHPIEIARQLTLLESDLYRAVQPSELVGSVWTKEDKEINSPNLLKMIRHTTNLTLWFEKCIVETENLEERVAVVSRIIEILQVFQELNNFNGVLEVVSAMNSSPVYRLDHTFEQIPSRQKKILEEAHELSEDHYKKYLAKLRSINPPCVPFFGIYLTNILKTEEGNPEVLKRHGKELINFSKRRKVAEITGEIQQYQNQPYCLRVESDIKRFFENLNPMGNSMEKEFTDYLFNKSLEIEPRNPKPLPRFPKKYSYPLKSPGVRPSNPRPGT

Row | SMILES | GI50 [1] | IC50 [2] | IC50 [3]
1 | Cc1c([C@@H](C)Nc2ccnc3ccc(N4CCn5ncnc5C4)cc23)cccc1C(F)(F)F [Compound 25, (R)-6-(5,6-dihydro-[1,2,4]triazolo[1,5-a]pyrazin-7(8H)-yl)-N-(1-(2-methyl-3-(trifluoromethyl)phenyl)ethyl)quinolin-4-amine] | 0.1 to 0.5 µM | > 0.1 µM | 0.15 to 0.5 µM
2 | CNC(=O)N1CC[C@@](OC)(c2ccc3nccc(N[C@H](C)c4cccc(C(F)F)c4F)c3c2)C1 [Compound 101, (R)-3-(4-(((R)-1-(3-(difluoromethyl)-2-fluorophenyl)ethyl)amino)quinolin-6-yl)-3-methoxy-N-methylpyrrolidine-1-carboxamide] | 0.1 to 0.5 µM | ≤ 0.01 µM | > 0.5 µM
3 | C[C@@H](Nc1ccnc2ccc(N3CC[C@H](N)C3)cc12)c1cccc(C(F)F)c1F [Compound 18, 6-((S)-3-aminopyrrolidin-1-yl)-N-((R)-1-(3-(difluoromethyl)-2-fluorophenyl)ethyl)quinolin-4-amine] | > 0.5 µM | 0.01 to 0.1 µM | > 0.5 µM
4 | COC1(c2ccc3nccc(N[C@H](C)c4cccc(C(F)(F)F)c4C)c3c2)CCN(C(C)=O)CC1 [Compound 79, (R)-1-(4-methoxy-4-(4-((1-(2-methyl-3-(trifluoromethyl)phenyl)ethyl)amino)quinolin-6-yl)piperidin-1-yl)ethan-1-one] | 0.1 to 0.5 µM | 0.01 to 0.1 µM | 0.15 to 0.5 µM
5 | CO[C@]1(c2ccc3nccc(N[C@H](C)c4cccc(C(F)F)c4F)c3c2)CCN(C(C)=O)C1 [Compound 76, 1-((S)-3-(4-(((R)-1-(3-(difluoromethyl)-2-fluorophenyl)ethyl)amino)quinolin-6-yl)-3-methoxypyrrolidin-1-yl)ethan-1-one] | ≤ 0.1 µM | ≤ 0.01 µM | ≤ 0.15 µM
6 | Cc1c([C@@H](C)Nc2ccnc3ccc(N4CCN(C(=O)C5CCOC5)CC4)cc23)cccc1C(F)(F)F (stereo partly drawn) [Compound 6, (4-(4-(((R)-1-(2-methyl-3-(trifluoromethyl)phenyl)ethyl)amino)quinolin-6-yl)piperazin-1-yl)(tetrahydrofuran-3-yl)methanone] | 0.1 to 0.5 µM | 0.01 to 0.1 µM | 0.15 to 0.5 µM
7 | Cc1c([C@@H](C)Nc2ccnc3ccc(N4CCN(C(=O)C5CCCO5)CC4)cc23)cccc1C(F)(F)F (stereo partly drawn) [Compound 53, (4-(4-(((R)-1-(2-methyl-3-(trifluoromethyl)phenyl)ethyl)amino)quinolin-6-yl)piperazin-1-yl)(tetrahydrofuran-2-yl)methanone] | 0.1 to 0.5 µM | 0.01 to 0.1 µM | > 0.5 µM
8 | C[C@@H](Nc1ccnc2ccc(N3CCN(C(=O)C4COC4)CC3)cc12)c1cccc(C(F)F)c1F [Compound 16, (R)-(4-(4-((1-(3-(difluoromethyl)-2-fluorophenyl)ethyl)amino)quinolin-6-yl)piperazin-1-yl)(oxetan-3-yl)methanone] | ≤ 0.1 µM | ≤ 0.01 µM | ≤ 0.15 µM
9 | Cc1c([C@@H](C)Nc2ccnc3ccc(N4CCn5c(C)nnc5C4)cc23)cccc1C(F)(F)F [Compound 45, (R)-N-(1-(2-methyl-3-(trifluoromethyl)phenyl)ethyl)-6-(3-methyl-5,6-dihydro-[1,2,4]triazolo[4,3-a]pyrazin-7(8H)-yl)quinolin-4-amine] | 0.1 to 0.5 µM | 0.01 to 0.1 µM | > 0.5 µM
10 | CC(=O)N1CCN(c2ccc3nccc(N[C@H](C)c4cccc(C(F)(F)F)c4C)c3c2)C[C@H]1C [Compound 51, 1-((R)-2-methyl-4-(4-(((R)-1-(2-methyl-3-(trifluoromethyl)phenyl)ethyl)amino)quinolin-6-yl)piperazin-1-yl)ethan-1-one] | 0.1 to 0.5 µM | 0.01 to 0.1 µM | > 0.5 µM
11 | C[C@@H](Nc1ccnc2ccc(N3CC[C@@H](N(C)C)C3)cc12)c1cccc(C(F)F)c1F [Compound 31, N-((R)-1-(3-(difluoromethyl)-2-fluorophenyl)ethyl)-6-((R)-3-(dimethylamino)pyrrolidin-1-yl)quinolin-4-amine] | ≤ 0.1 µM | ≤ 0.01 µM | > 0.5 µM
12 | CC(=O)N1CCN(c2ccc3nccc(N[C@H](C)c4cccc(C(F)(F)F)c4C)c3c2)C[C@@H]1C [Compound 33, 1-((S)-2-methyl-4-(4-(((R)-1-(2-methyl-3-(trifluoromethyl)phenyl)ethyl)amino)quinolin-6-yl)piperazin-1-yl)ethan-1-one] | 0.1 to 0.5 µM | > 0.1 µM | > 0.5 µM
13 | C[C@@H](Nc1ccnc2ccc(N3CC[C@@H](NC(=O)OC(C)(C)C)C3)cc12)c1cccc(C(F)F)c1F [Compound 8, tert-butyl ((R)-1-(4-(((R)-1-(3-(difluoromethyl)-2-fluorophenyl)ethyl)amino)quinolin-6-yl)pyrrolidin-3-yl)carbamate] | > 0.5 µM | 0.01 to 0.1 µM | 0.15 to 0.5 µM
14 | CC(=O)N1CCC(F)(c2ccc3nccc(NC(C)c4cccc(C(F)F)c4F)c3c2)CC1 (stereo not drawn) [Compound 84, 1-(4-(4-((1-(3-(difluoromethyl)-2-fluorophenyl)ethyl)amino)quinolin-6-yl)-4-fluoropiperidin-1-yl)ethan-1-one] | ≤ 0.1 µM | ≤ 0.01 µM | 0.15 to 0.5 µM
15 | CC(=O)N[C@@H]1CCN(c2ccc3nccc(N[C@H](C)c4cccc(C(F)F)c4F)c3c2)C1 [Compound 11, N-((R)-1-(4-(((R)-1-(3-(difluoromethyl)-2-fluorophenyl)ethyl)amino)quinolin-6-yl)pyrrolidin-3-yl)acetamide] | ≤ 0.1 µM | 0.01 to 0.1 µM | 0.15 to 0.5 µM
16 | Cc1c([C@@H](C)Nc2ccnc3ccc(N4C[C@H](C)NC[C@H]4C)cc23)cccc1C(F)(F)F [Compound 54, 6-((2R,5S)-2,5-dimethylpiperazin-1-yl)-N-((R)-1-(2-methyl-3-(trifluoromethyl)phenyl)ethyl)quinolin-4-amine] | 0.1 to 0.5 µM | 0.01 to 0.1 µM | > 0.5 µM
17 | CO[C@@]1(c2ccc3nccc(N[C@H](C)c4cccc(C(F)F)c4F)c3c2)CCN(C(=O)C(C)C)C1 [Compound 91, 1-((R)-3-(4-(((R)-1-(3-(difluoromethyl)-2-fluorophenyl)ethyl)amino)quinolin-6-yl)-3-methoxypyrrolidin-1-yl)-2-methylpropan-1-one] | 0.1 to 0.5 µM | ≤ 0.01 µM | > 0.5 µM
